Legend:
[1] = system: human coronavirus 229E; experiment: Anti-coronavirus activity, cell survival (XTT) of infected HAP1 cells; format: cell-based; conditions: in combination with FGF-2 (1 ng/ml), compound 0.002-1 μM, 4 days incubation, FIG. 7
Method: FIG. 7 is a graph showing the cell survival of HAP1 cells infected with human coronavirus 229E following a 4-day incubation period in the presence of Compound 1o. Compound 1o (0.002 μM, 0.008 μM, 0.04 μM, 0.2 μM, or 1 uM) and FGF-2 (1 ng/mL) were added on Day -1, Day 0, Day 1, and Day 2 of infection by human coronavirus 229E.
(§1) Compound 10 was evaluated for its ability to reduce human coronavirus 229E induced cellular toxicity in HAP1 cells with and without the addition of a low concentration of FGF-2. HAP1 cells were seeded at a density of 1×10^4 cells/well in a volume of 100 μL in DMEM supplemented with 10% FBS. Following a 24-hour incubation at 37° C./5% CO2 the cells were pre-incubated with and without (media only) exogenous FGF-2 (1 ng/ml) and Compound 10 (0.002 μM, 0.008 μM, 0.04 μM, 0.2 μM, or 1 μM; plated in triplicate) for 24 hours prior (D-1) to the addition of human coronavirus 229E at a pre-determined titer. On the day of viral infection (D0), and one and two days thereafter (D1 and D2), freshly prepared FGF-2 and Compound 10 were added. The cultures were incubated for 4 days at 37° C./5% CO2, after which the cells were stained for cell survival with the tetrazolium dye XTT.

[2] = system: HAP1 cells; experiment: Cell survival (XTT) of HAP1 cells in the absence of virus; format: cell-based; conditions: compound 0.002-1 μM, FGF-2 1 ng/ml
Method: as §1

[3] = molecular target: FGFR1 (Homo sapiens, UniProt P11362); experiment: Phosphorylation of FGFR1 in a cell-based system; conditions: cells expressing FGFR1, increasing concentrations, submaximal concentration of FGF-2, FIG. 2
Method: FIG. 2 is a graph showing the phosphorylation of FGFR1 in the presence of increasing concentrations of Compound 1o in a cell-based system.
Cells expressing FGFR1 were exposed to increasing concentrations of Compound 10 in the presence of a submaximal concentration of FGF-2. Cells were then lysed, and the relative phosphorylation of FGFR1 was assessed using antibodies to non-phosphorylated and phosphorylated FGFR1. The results are shown in FIG. 2, which is a graph showing the phosphorylation of FGFR1 in the presence of increasing concentrations of Compound 10.

[4] = system: rodent model of stroke recovery (MCAO); experiment: Stroke recovery in vivo after middle cerebral artery occlusion (MCAO); conditions: rat MCAO, 10 mg/kg i.v. on Day 1, 2, 3 after MCAO
Method: Compound 10 was tested for its effectiveness in a rodent model of stroke recovery. Twenty male Sprague Dawley Rats (Charles River Laboratories) each weighing 300-400 g were used in this experiment. First, anesthesia was induced in an induction chamber with 2-3% isoflurane in N2O:O2 (2:1) and maintained with 1-1.5% isoflurane via face mask. Adequate depth of anesthesia was assessed by lack of withdrawal to hindlimb pinch and loss of eyeblink reflex. Once anesthetized, animals received cefazolin sodium (40 mg/kg, i.p.) and buprenorphine SR (0.9-1 mg/kg, s.c.). Cefazolin was used as a prophylactic antibiotic. A veterinary ophthalmic ointment (Sodium Chloride hypertonicity ophthalmic ointment (Muro 128 Sterile Ophthalmic 5% Ointment)) was applied to the eyes. […]
Behavioral evaluations of sensorimotor function were done by investigators blinded to treatment assignment. […] For the forelimb-placing test, the examiner held the rat close to a tabletop and scored the rat's ability to place the forelimb on the tabletop in response to whisker, visual, tactile, or proprioceptive stimulation. Similarly, for the hindlimb placing test, the examiner assessed the rat's ability to place the hindlimb on the tabletop in response to tactile and proprioceptive stimulation. […]

[5] = molecular target: T1, purified FGF-2/FGFR1 complex (Homo sapiens, UniProt P09038+P11362); experiment: Thermal stability assay (TSA) melting curve of the complex (FIG. 1); format: binding; conditions: 25 μM compound, versus complex alone
T1 construct: made in house; host or cells: Escherichia coli BL21 (DE3) Star
Method: FIG. 1 is a graph showing the thermal stability assay (TSA) data of purified FGF-2.FGFR1 complex with and without the addition of Compound 1o (dotted line: without Compound 1o; solid line: 25 μM Compound 1o).
TSA was utilized to biophysically characterize the recombinant human FGFR1/FGF2 complex in the presence or absence of selected compounds of formula (I), Compounds 1, 2a-2f, 20, 5, 60, and 8-13. Compound 1 was prepared according to the procedures described in Example 1, and the other compounds were obtained from commercial sources. The assay functions by protein denaturation over a temperature gradient. […] Changes in the melting temperature of the protein complex in the presence of each compound were monitored and compounds were screened/ranked using this method.
Complex formation was verified by loading the complexed material on a size exclusion column (superdex 10 300GL S200) and observing the monodisperse peak corresponding to the FGF2/FGFR1 complex (˜ 40 kDa). […] The samples were processed using a Bio-Rad CFX C96 Touch quantitative polymerase chain reaction and run using the FRET assay settings with a heating ramp of 0.3° C./s cycling from 4 to 100° C. Data analysis was performed using the Bio-Rad CFX Manager Software (version 3.1, Bio-Rad) and changes in the melting temperature (Tm) of the complex in the presence of each compound were monitored. […]

FGFR1, sequence (P11362 22-822, species assumed): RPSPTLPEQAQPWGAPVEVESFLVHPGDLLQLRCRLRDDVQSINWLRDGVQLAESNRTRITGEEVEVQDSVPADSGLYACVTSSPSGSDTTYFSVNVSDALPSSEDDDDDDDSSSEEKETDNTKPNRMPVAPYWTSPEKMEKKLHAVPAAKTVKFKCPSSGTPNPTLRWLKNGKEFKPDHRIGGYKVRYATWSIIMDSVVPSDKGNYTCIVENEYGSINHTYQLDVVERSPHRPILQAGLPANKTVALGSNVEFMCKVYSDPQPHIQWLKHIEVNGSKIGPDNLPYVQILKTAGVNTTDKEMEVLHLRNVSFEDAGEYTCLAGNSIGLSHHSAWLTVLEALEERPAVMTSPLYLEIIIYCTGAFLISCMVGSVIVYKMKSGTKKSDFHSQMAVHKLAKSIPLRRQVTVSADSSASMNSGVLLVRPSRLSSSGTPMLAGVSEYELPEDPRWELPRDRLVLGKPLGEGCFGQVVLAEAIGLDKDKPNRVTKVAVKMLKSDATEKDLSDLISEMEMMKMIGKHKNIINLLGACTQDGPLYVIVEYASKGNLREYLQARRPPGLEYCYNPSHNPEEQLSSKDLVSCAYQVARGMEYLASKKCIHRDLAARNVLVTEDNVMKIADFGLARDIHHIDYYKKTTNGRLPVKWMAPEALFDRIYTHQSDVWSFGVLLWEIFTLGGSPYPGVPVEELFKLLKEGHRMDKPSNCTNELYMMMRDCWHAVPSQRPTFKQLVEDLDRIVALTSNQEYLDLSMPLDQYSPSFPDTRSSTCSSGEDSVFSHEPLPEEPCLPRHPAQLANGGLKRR
FGFR1, sequence (P09038 143-288 partner, species assumed): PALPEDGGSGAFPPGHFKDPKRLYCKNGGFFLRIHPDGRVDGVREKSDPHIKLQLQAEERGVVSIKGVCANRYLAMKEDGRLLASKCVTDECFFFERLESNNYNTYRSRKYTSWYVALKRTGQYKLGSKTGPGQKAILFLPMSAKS
T1 sequence (P11362 142-365 limits assumed): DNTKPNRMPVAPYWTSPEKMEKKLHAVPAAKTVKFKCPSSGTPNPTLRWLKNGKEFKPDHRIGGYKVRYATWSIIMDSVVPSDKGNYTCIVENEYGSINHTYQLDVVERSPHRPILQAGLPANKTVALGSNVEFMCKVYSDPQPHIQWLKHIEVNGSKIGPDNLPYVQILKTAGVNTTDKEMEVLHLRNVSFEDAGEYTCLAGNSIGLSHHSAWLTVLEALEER
T1 sequence (P09038 156-288 limits assumed): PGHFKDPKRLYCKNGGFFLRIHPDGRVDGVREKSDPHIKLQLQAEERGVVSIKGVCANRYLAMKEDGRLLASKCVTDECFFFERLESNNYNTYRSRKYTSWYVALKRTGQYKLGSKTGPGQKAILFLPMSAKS

## CCN(CC)c1ccc(C=O)cc1 [Compound 10, 4-diethylaminobenzaldehyde]
[1]
  cell survival of HAP1 cells infected with human coronavirus 229E: increases cell survival
[2]
  cell survival in the absence of the virus: no effect on cell survival
[3]
  relative phosphorylation of FGFR1: augmented the effects of FGF-2
[4]
  rise in body weight following surgery: not affected
[4]; up to Day 21, versus vehicle, p<0.001 two-way repeated-measures ANOVA
  sensorimotor recovery (forelimb placing, hindlimb placing, body swing tests): clear and significant augmentation of sensorimotor recovery
[5]
  shift of the TSA melting curve / stability of the complex: increased stability of the complex
